Reference: patent US20170340688A1, “TITRATED EXTRACTS OF CYNARA SCOLYMUS AND USES THEREOF” (priority 2014, published 2017)
Values after ≈ are worked out from the molar mass of the structure shown.

How the values were obtained:
[1] = in vitro; type: cell-based, human; details: human
Experimental: (§1) To establish a chronic hypoxia model, the above cell lines were cultivated in DMEM with 10% FBS in 5% CO2 and 1% O2 atmosphere, balanced with N using a multigas incubator (Ruskinn C300, Ruskinn Technology Ltd., Bridgend, United Kingdom). Cells survived through each cell passage were selected and cultivated with reoxygenation and hypoxia cycles for at least 3 months and up to 6 months.
(§2) Cell vitality was assessed with a 0.4% Trypan Blue exclusion test, using an automated Countess cell counter (Life Technologies™).
(§3) In order to re-create a state of chronic hypoxia, present in the interior of a solid tumour, all cell lines indicated in the table above were cultivated for some months in the Ruskin Cabinet at 37° C., under a 1% O2 atmosphere. The medium was changed every three days so as to eliminate dead cells, and approximately every 10-15 days the cells were placed in the incubator under normoxia conditions for 24 hours.
(§4) Among all cells analysed, only MDA-MB231 cell line adapted to the hypoxic environment and survived. […]
(§5) The model created appears adapted for the study of plant extracts to be used in association with the classic chemotherapeutic agents. Then cells were treated with doxorubicin, with plant extracts or with their association, and cell vitality was analysed by Trypan Blue/Countess Invitrogen as described in the annexed Materials and Methods. […]

[2] = tested on: ChR-MDA-MB231; test: cells; type: cell-based, human; details: Homo sapiens; chMDAMB231, chronic hypoxia; 24 hours; read-out: EC50 cell vitality
Experimental: as §1, §2, §3, §4, §5

[3] = tested on: MDA-MB231; test: Cell vitality by Trypan Blue/Countess, MDA-MB231 under normoxia; type: cell-based; details: Homo sapiens, MDA-MB-231, 24 hours
Experimental: Human breast cancer cell lines T47-D and MDA-MB231, human colorectal adenocarcinoma line HT-29, human prostate cancer line DU145, human uterine cervix carcinoma cell line HeLa, human hepatocarcinoma cell line HepG2 (ATCC, American Type Culture Collection) were cultivated in DMEM (BioWhittaker, Cambrex Bio Science, Belgium) in a 5% CO2 atmosphere at 37° C.
as §2
The model created appears adapted for the study of plant extracts to be used in association with the classic chemotherapeutic agents. Then cells were treated with doxorubicin, with plant extracts or with their association, and cell vitality was analysed by Trypan Blue/Countess Invitrogen as described in the annexed Materials and Methods. The following treatments were performed:
MDA-MB231 cells cultivated under normoxia and under chronic hypoxia were treated for 24 hours with various concentrations of doxorubicin, elective drug in the treatment of breast cancer.

[4] = target: T1, STAT3 (Homo sapiens, UniProt P40763); test: Modulation of the STAT3 pathway in DU145 cells (Western Blot, EMSA); type: cell-based; parameters: The cell line DU145 expresses pStat3 in a constitutive manner; endogenous in cells; host or cells: DU145 (human prostate carcinoma, ATCC HTB-81); details: extract 200 μg/ml (0.181% cynaropicrin) 2-4 hours, cynaropicrin 25 μM
Experimental: (§6) The cells were lysed in ice for 30 min in lysis buffer NP40 (50 mM Tris-HCl pH 7.4, 150 mM NaCl, 1% NP-40, 1 mM EGTA, 1 mM EDTA) complemented with inhibitors of protease and phosphatase (5 mM PMSF, 3 mM NaF, 1 mM DTT, 1 mM NaVO4). Equal amounts of total extracts of protein (30 μg) were broken down by means of denaturing electrophoresis (SDS-PAGE) in 8% polyacrylamide gel and transferred for 2 hours on nitrocellulose membrane. The membranes were blocked with a 5% solution of milk dissolved in TBS-Tween_20 0.05% for 1 hour and incubated with the specific primary antibodies. The following primary antibodies were used: anti-beta actin (A-2228, SIGMA), anti-pSTAT3 (Tyr-705) (sc8059, Santa Cruz) and anti-STAT3 (sc7179, Santa Cruz). The secondary antibodies were peroxidase-conjugated (Santa Cruz), and ECL reagents (Amersham, GE Healthcare, Piscataway, N.J., USA) were used for the chemiluminescence.
(§7) 200 μg/ml of extract that contains 0.181% of cynaropricrin contain 1.2 μM of cynaropricrin.

[5] = tested on: GSH; test: Intracellular analysis of GSH (colorimetric); type: cell-based; details: cynaropicrin 12.5, 25, 50 μM
Experimental: The intracellular concentration of GSH was evaluated by means of a colorimetric method. The cell extract, deproteinised by means of 10% trichloroacetic acid, was treated with dithio nitrobenzene (DTNB), and the quantity of TNB, which is released following the reaction with GSH, was evaluated by analysing the absorbance at 412 nm.

[6] = tested on: human carcinoma cells DU145; test: WST-1 cell vitality in co-treatment with chemotherapeutic agents, DU145; type: cell-based
Experimental: Cytotoxicity was assayed using the WST assay (WSTs=water soluble tetrazolium salts) which utilises the ability of mitochondrial dehydrogenases to separate the tetrazole ring from the yellow-coloured WST molecule (tetrazolium salt) to give an orange formazan salt. The amount of formazan produced following the treatment of the cells with the substances being tested is measured using spectrophotometry and is proportional to the number of living cells. WST-1 and in particular WST-8 (2-(2-methoxy-4-nitrophenyl)-3-(4-nitrophenyl)-5-(2,4-disulfophenyl)-2H-tetrazolium) are advantageous with respect to MTT because they reduce outside the cells, in combination with PMS as electron mediator, to produce water-soluble formazan.
The assays were carried out in parallel with variable doses of cynaropicrin in place of the extract, to compare the efficacy of the extract and that of cynaropicrin.

[7] = tested on: STAT3; test: Glutathionylation of STAT3; type: cell-based; details: cynaropicrin 12 microM, 25 μM
Experimental: STAT3 was immunoprecipitated by incubating the protein cell extract overnight with an anti-STAT3 antibody. The proteins obtained were separated by means of SDS-PAGE in non-reducing conditions and were transferred on PVDF membrane. The glutathionylated STAT3 was recognised using an anti-GSH antibody.

[8] = target: T1, STAT3; test: Modulation of the STAT3 pathway in KARPAS cells (Western Blot, EMSA); type: cell-based; details: extract 200 μg/ml (0.181% cynaropicrin) 2-4 hours, cynaropicrin 25 μM
Experimental: as §6, §7

[9] = tested on: confluent prostatic adenocarcinoma cell line DU145; test: WST-1 cell vitality assay, confluent DU145 (high levels of constitutively activated STAT3); type: cell-based, human
Experimental: FIG. 7 Assay of cell vitality in the confluent prostatic adenocarcinoma cell line DU145, treated with various concentrations of artichoke extract (50-600 μg/ml) for various treatment times (24 and 48 hours) with indications of the content in cynaropicrin of the extract. The confluency of the cells increases the levels of constitutively activated STAT3, making the cells themselves largely resistant to death. The vitality was analysed using the WST-1 assay (WST-1 test, see the experimental section for the conditions). […] The squares show the trend over 24 hours and the circles show the trend at 48 hours with extract doses from 0 to 600 μg/ml and the respective content in cynaropicrin, expressed both in μg/ml and in μM, of the extract at the various concentrations (100, 200, 300, 400, 500, 600 μg/ml).
FIG. 8. […] The vitality was analysed using the WST-1 assay (WST-1 test, see the experimental section for the conditions). […]
Cytotoxicity was assayed using the WST assay (WSTs=water soluble tetrazolium salts) which utilises the ability of mitochondrial dehydrogenases to separate the tetrazole ring from the yellow-coloured WST molecule (tetrazolium salt) to give an orange formazan salt. The amount of formazan produced following the treatment of the cells with the substances being tested is measured using spectrophotometry and is proportional to the number of living cells. […]

T1 sequence (P40763 whole entry): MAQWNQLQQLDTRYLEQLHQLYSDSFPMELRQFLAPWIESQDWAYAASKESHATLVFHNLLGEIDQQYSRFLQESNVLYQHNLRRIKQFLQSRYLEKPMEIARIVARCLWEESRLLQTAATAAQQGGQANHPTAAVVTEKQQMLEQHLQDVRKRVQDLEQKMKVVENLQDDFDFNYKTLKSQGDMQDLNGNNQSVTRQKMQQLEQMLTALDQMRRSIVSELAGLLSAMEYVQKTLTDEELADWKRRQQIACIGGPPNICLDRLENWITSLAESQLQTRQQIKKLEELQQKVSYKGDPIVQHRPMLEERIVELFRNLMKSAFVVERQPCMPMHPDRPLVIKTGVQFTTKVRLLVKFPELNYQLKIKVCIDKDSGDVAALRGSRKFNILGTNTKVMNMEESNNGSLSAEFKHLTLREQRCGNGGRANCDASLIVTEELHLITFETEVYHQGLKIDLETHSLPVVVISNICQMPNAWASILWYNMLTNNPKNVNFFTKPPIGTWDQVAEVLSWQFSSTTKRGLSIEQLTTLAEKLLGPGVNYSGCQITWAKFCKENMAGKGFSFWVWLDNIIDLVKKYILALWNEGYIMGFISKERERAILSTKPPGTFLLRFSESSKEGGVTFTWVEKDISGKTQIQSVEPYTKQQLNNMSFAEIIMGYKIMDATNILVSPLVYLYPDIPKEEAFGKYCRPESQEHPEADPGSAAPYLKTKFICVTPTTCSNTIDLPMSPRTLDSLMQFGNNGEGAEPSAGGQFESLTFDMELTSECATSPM

| Compound | mortality at 0.25 ug/ml [1] | EC50 [2] | EC50 [3] | binding of STAT3 to DNA (EMSA) [4] | phosphorylation of STAT3 (Western Blot) [4] | intracellular concentration of GSH [5] | molarity of cynaropicrin necessary to reduce cell vitality below 20%, relative to that present in the artichoke extract ([6]; with cisplatinum 15 μg/ml) | molarity of cynaropicrin necessary to reduce cell vitality below 20%, relative to that present in the artichoke extract ([6]; with doxorubicin 2 μg/ml) | glutathionylation of STAT3 [7] | binding of STAT3 to DNA (EMSA) [8] | phosphorylation of STAT3 (Western Blot) [8] | cell vitality (WST-1) ([9]; 24 and 48 hours, extract 50-600 μg/ml, cynaropicrin 0-70 μM) | concentration of cynaropicrin for reduction of vitality equal to approximately 90% ([9]; 48 hours, cynaropicrin alone) |
| --- | --- | --- | --- | --- | --- | --- | --- | --- | --- | --- | --- | --- | --- |
| COc1cccc2c1C(=O)c1c(O)c3c(c(O)c1C2=O)C[C@@](O)(C(=O)CO)C[C@@H]3O[C@H]1C[C@H](N)[C@H](O)[C@H](C)O1 [doxorubicin] | 20% | 1 µg/mL (≈ 1.84 µM) | 0.25 µg/mL (≈ 0.46 µM) |  |  |  |  |  |  |  |  |  |  |
| C=C(CO)C(=O)O[C@H]1CC(=C)[C@@H]2C[C@H](O)C(=C)[C@@H]2[C@H]2OC(=O)C(=C)[C@@H]21 [cynaropicrin] |  |  |  | inhibit the binding of STAT3 to DNA | inhibit the phosphorylation of STAT3 | time-dependent and dose-dependent reduction of the intracellular concentration of GSH | forty times greater | approximately twenty-five times greater | determines the glutathionylation of STAT3 | inhibits the binding of STAT3 to DNA | inhibits the phosphorylation of STAT3 | inhibits cell vitality in a time-dependent and dose-dependent manner | 50 µM |
